Laboratory results from PMC12645437, “Orthogonal IMiD-Degron Pairs Induce Selective Protein Degradation in Cells” (ACS Chemical Biology, 2025).

How the values were obtained:
[1] = system: library of 8380 IKZF3 degrons fused to EGFP in Jurkat cells; experiment: Pooled mutant ZF degron library screen (FACS EGFPlow vs EGFP+, NGS), 18 h; type: cell-based, human;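 on logFC: Log2 fold change of EGFPlow over EGFP+ representation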
[2] = biological target: T1, Q147A mutant degron (ANQS) fused to EGFP (Homo sapiens, UniProt Q96SW2+Q9UKT9, Q147A); experiment: Ratiometric EGFP:mCherry flow cytometry degradation assay, 18 h; type: cell-based; details: Jurkat, read-out: DMax Q147A/%
T1 construct: pLVX-Sprout-IKZF3 130-189aa Q147A (ANQS); expressed in transfected cells
T1 sequence (Q9UKT9 130-189 Q147A): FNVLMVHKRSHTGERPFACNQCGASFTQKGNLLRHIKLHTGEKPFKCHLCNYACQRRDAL
T1 sequence (Q96SW2 whole entry, the tested form may be a part): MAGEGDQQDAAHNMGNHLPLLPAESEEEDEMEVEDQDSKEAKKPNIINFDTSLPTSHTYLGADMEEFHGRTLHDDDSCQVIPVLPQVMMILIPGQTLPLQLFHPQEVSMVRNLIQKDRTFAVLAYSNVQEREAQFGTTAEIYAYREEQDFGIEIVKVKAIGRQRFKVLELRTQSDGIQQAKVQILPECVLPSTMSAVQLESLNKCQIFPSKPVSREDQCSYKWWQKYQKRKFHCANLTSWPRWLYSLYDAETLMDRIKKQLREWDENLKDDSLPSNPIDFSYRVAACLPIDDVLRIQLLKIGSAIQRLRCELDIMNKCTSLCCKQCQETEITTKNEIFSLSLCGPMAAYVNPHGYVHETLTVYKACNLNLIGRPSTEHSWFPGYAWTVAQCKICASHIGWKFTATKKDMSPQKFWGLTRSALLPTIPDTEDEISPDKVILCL
T1 sequence (Q16531 whole entry partner, the tested form may be a part): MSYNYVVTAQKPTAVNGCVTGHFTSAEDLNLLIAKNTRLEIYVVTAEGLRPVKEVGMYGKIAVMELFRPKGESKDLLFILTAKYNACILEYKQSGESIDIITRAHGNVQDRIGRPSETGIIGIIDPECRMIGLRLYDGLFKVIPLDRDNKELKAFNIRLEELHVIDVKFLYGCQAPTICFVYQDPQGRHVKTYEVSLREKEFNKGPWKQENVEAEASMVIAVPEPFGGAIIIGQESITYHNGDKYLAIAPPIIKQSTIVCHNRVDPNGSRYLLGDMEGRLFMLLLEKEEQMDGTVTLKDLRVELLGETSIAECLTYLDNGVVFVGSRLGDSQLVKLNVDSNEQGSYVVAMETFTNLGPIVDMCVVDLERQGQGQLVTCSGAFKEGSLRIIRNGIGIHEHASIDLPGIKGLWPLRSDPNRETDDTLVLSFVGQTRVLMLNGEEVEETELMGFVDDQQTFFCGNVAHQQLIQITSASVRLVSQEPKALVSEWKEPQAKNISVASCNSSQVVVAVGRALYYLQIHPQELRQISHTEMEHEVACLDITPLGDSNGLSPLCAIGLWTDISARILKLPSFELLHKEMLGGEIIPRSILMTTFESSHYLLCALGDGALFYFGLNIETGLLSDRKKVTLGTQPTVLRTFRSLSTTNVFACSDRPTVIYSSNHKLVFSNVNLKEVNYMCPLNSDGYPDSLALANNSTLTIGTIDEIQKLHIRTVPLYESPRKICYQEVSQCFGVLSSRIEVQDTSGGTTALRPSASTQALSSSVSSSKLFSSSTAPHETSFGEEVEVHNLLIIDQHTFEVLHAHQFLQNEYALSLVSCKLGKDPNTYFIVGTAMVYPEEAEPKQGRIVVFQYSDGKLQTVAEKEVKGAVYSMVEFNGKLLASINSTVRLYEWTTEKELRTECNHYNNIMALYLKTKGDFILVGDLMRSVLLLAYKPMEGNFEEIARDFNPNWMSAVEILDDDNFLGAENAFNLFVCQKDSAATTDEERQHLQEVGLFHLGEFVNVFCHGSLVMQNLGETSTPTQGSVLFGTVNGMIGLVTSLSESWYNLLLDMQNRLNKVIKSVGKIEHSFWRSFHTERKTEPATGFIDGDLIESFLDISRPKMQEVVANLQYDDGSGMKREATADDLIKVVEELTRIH

O=C1CCC(N2C(=O)c3ccccc3C2=O)C(=O)N1 (centres unmarked) [Compound 1, thalidomide, reference compound]
logFC ([1]; degron residues 146/147/149/150/152/153/154/155/167: FADQGAQFL): -3.13 | logFC ([1]; degron residues 146/147/149/150/152/153/154/155/167: FADQGARFL): -2.69 | logFC ([1]; degron residues 146/147/149/150/152/153/154/155/167: FADQGASFL): -3.41 | logFC ([1]; degron residues 146/147/149/150/152/153/154/155/167: FADQGATFL): -2.79 | logFC ([1]; degron residues 146/147/149/150/152/153/154/155/167: FADQGAVFL): -2.29 | logFC ([1]; degron residues 146/147/149/150/152/153/154/155/167: FADQGAWFL): -2.86 | logFC ([1]; degron residues 146/147/149/150/152/153/154/155/167: FADQGAYFL): -2.43 | logFC ([1]; degron residues 146/147/149/150/152/153/154/155/167: FADVGAAFL): -1.13 | logFC ([1]; degron residues 146/147/149/150/152/153/154/155/167: FADVGACFL): -2.56 | logFC ([1]; degron residues 146/147/149/150/152/153/154/155/167: FADVGADFL): -2.99 | logFC ([1]; degron residues 146/147/149/150/152/153/154/155/167: FADVGAEFL): -2.38 | logFC ([1]; degron residues 146/147/149/150/152/153/154/155/167: FADVGAFFL): -1.98 | logFC ([1]; degron residues 146/147/149/150/152/153/154/155/167: FADVGAGFL): -2.06 | logFC ([1]; degron residues 146/147/149/150/152/153/154/155/167: FADVGAHFL): -2.25 | logFC ([1]; degron residues 146/147/149/150/152/153/154/155/167: FADVGAIFL): -1.83 | logFC ([1]; degron residues 146/147/149/150/152/153/154/155/167: FADVGAKFL): -1.45 | logFC ([1]; degron residues 146/147/149/150/152/153/154/155/167: FADVGALFL): -2.47 | logFC ([1]; degron residues 146/147/149/150/152/153/154/155/167: FADVGAMFL): -2.29 | logFC ([1]; degron residues 146/147/149/150/152/153/154/155/167: FADVGANFL): -2.15 | logFC ([1]; degron residues 146/147/149/150/152/153/154/155/167: FADVGAPFL): -0.92 | logFC ([1]; degron residues 146/147/149/150/152/153/154/155/167: FADVGAQFL): -1.67 | logFC ([1]; degron residues 146/147/149/150/152/153/154/155/167: FADVGARFL): -1.19 | logFC ([1]; degron residues 146/147/149/150/152/153/154/155/167: FADVGASFL): -1.27 | logFC ([1]; degron residues 146/147/149/150/152/153/154/155/167: FADVGATFL): -1.78 | logFC ([1]; degron residues 146/147/149/150/152/153/154/155/167: FADVGAVFL): -2.08 | logFC ([1]; degron residues 146/147/149/150/152/153/154/155/167: FADVGAWFL): -2.99 | logFC ([1]; degron residues 146/147/149/150/152/153/154/155/167: FADVGAYFL): -2.07 | Log2FC ([1]; degron residues 146/147/149/150/152/153/154/155/167: FQEIGAPFL): 3.7224 | Log2FC ([1]; degron residues 146/147/149/150/152/153/154/155/167: FQEIGARFL): 3.7041 | Log2FC ([1]; degron residues 146/147/149/150/152/153/154/155/167: FQEIGASFL): 3.7484 | Log2FC ([1]; degron residues 146/147/149/150/152/153/154/155/167: FQEVGAQFL): 3.7719 | Log2FC ([1]; degron residues 146/147/149/150/152/153/154/155/167: FQEVGARFL): 3.7061 | Log2FC ([1]; degron residues 146/147/149/150/152/153/154/155/167: FQEVGATFL): 3.7446 | Log2FC ([1]; degron residues 146/147/149/150/152/153/154/155/167: FQEVGAVFL): 3.7106 | Log2FC ([1]; degron residues 146/147/149/150/152/153/154/155/167: FQNIGAIFL): 3.8114 | Log2FC ([1]; degron residues 146/147/149/150/152/153/154/155/167: FQNIGAPFL): 3.7088 | Log2FC ([1]; degron residues 146/147/149/150/152/153/154/155/167: FQNIGATFL, listed as Thal): 3.867 | Log2FC ([1]; degron residues 146/147/149/150/152/153/154/155/167: FQNIGATFL, listed as Thalidomide): 3.8667 | Log2FC ([1]; degron residues 146/147/149/150/152/153/154/155/167: FQPIGACFL): 3.7711 | Log2FC ([1]; degron residues 146/147/149/150/152/153/154/155/167: FQPIGADFL, listed as Thal): 3.806 | Log2FC ([1]; degron residues 146/147/149/150/152/153/154/155/167: FQPIGADFL, listed as Thalidomide): 3.8059 | Log2FC ([1]; degron residues 146/147/149/150/152/153/154/155/167: FQPIGAIFL): 3.7924 | Log2FC ([1]; degron residues 146/147/149/150/152/153/154/155/167: FQPIGASFL (QPIS), listed as Thal): 3.79 | Log2FC ([1]; degron residues 146/147/149/150/152/153/154/155/167: FQPIGASFL (QPIS), listed as Thalidomide): 3.7900 | Log2FC ([1]; degron residues 146/147/149/150/152/153/154/155/167: FQPVGAEFL): 3.7612 | Log2FC ([1]; degron residues 146/147/149/150/152/153/154/155/167: FQPVGAKFL, listed as Thal): 3.962 | Log2FC ([1]; degron residues 146/147/149/150/152/153/154/155/167: FQPVGAKFL, listed as Thalidomide): 3.9618 | Log2FC ([1]; degron residues 146/147/149/150/152/153/154/155/167: FQPVGAPFL, listed as Thal): 3.872 | Log2FC ([1]; degron residues 146/147/149/150/152/153/154/155/167: FQPVGAPFL, listed as Thalidomide): 3.8717 | Log2FC ([1]; degron residues 146/147/149/150/152/153/154/155/167: FQPVGATFL): 3.7941 | Log2FC ([1]; degron residues 146/147/149/150/152/153/154/155/167: FQPVGAVFL): 3.7460 | Log2FC ([1]; degron residues 146/147/149/150/152/153/154/155/167: LQPIGFVCL): 3.7517 | Dmax [2]: 82%
